From patent US10703756B2, “Pyrrolo[2,3-D]pyrimidinyl, pyrrolo[2,3-B]pyrazinyl, pyrrolo[2,3-B]pyridinyl acrylamides and epoxides thereof” (Pfizer Inc., priority 2015, dated 2020)
pIC50: −log10 of the molar value.

What was measured:
JAK3 enzyme [1] = target: T1, JAK3 enzyme (Homo sapiens, UniProt P52333); test: JAK Caliper Enzyme Assay at 1 mM ATP; format: biochemical
T1 sequence (P52333 1-1124): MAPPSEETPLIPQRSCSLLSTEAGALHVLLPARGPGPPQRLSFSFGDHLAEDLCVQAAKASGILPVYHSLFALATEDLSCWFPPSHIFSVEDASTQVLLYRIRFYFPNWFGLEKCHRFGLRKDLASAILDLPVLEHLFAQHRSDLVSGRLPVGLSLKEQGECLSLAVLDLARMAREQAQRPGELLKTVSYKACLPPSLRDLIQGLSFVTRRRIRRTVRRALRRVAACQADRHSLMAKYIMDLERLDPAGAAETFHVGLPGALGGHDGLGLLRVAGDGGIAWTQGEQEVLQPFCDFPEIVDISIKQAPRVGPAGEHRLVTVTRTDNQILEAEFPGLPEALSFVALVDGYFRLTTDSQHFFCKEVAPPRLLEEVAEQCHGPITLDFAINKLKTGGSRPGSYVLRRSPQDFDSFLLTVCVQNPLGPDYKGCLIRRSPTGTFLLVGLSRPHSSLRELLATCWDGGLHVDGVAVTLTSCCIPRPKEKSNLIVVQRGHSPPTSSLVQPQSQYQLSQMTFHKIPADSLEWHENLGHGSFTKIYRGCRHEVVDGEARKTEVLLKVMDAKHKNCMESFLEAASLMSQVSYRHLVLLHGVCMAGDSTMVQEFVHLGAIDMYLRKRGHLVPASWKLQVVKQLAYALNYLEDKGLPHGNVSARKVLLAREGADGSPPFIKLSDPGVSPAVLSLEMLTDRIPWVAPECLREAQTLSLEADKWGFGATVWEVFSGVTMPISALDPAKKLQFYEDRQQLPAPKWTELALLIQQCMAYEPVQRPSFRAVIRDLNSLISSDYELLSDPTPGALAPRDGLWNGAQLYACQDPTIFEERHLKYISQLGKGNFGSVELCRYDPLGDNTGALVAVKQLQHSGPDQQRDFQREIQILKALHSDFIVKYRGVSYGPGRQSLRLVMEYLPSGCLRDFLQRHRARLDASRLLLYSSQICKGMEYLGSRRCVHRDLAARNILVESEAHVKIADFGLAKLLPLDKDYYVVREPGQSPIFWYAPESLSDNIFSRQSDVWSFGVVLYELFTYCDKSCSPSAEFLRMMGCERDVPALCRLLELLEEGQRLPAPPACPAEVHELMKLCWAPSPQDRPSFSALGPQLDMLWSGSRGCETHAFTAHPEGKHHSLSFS
In short: (§1)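 Compound tested as 11-point half-log DMSO dilution series (top 600 μM in DMSO, a dilution-plate level). Enzyme level and time set for 20%-30% peptide phosphorylation; phosphorylated and unphosphorylated peptide separated and quantified by Caliper LC3000 mobility shift.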

JAK3 enzyme [2] = target: T1, JAK3 enzyme; test: JAK Caliper Enzyme Assay at 4 μM ATP; format: biochemical
In short: as §1

| Structure (SMILES) | pIC50 (JAK3 enzyme [1]) | pIC50 (JAK3 enzyme [2]) |
| --- | --- | --- |
| C=CC(=O)N1CCN(c2cnc3[nH]cc(C(=O)N[C@@H]4C[C@H]4C(F)(F)F)c3n2)C[C@@H]1CC(C)C [Example 303, 2-[(3S)-4-acryloyl-3-(2-methylpropyl)piperazin-1-yl]-N-[(1R,2R)-2-(trifluoromethyl)cyclopropyl]-5H-pyrrolo[2,3-b]pyrazine-7-carboxamide] | 6.14 | 8.32 |
| C=CC(=O)N1CCN(c2cnc3[nH]cc(C(=O)NC4CC(F)(F)C4)c3n2)CC1(C)C [Example 325, 2-(4-acryloyl-3,3-dimethylpiperazin-1-yl)-N-(3,3-difluorocyclobutyl)-5H-pyrrolo[2,3-b]pyrazine-7-carboxamide] | 5.90 | 7.89 |
| C=CC(=O)N1CCC(Oc2cnc3[nH]cc(C(=O)NCCC(F)(F)F)c3c2)CC1 [Example 338, 5-[(1-acryloylpiperidin-4-yl)oxy]-N-(3,3,3-trifluoropropyl)-1H-pyrrolo[2,3-b]pyridine-3-carboxamide] | 5.56 | 7.50 |
| C=CC(=O)N1CCC(Oc2cnc3[nH]cc(C(=O)NC4CCCC(F)(F)C4)c3c2)CC1 (centres unmarked) [Example 339, 5-[(1-acryloylpiperidin-4-yl)oxy]-N-(3,3-difluorocyclohexyl)-1H-pyrrolo[2,3-b]pyridine-3-carboxamide] | 5.57 | 7.78 |
| C=CC(=O)N1CCC(Oc2cnc3[nH]cc(C(=O)NCc4cccc(F)c4)c3c2)CC1 [Example 340, 5-[(1-acryloylpiperidin-4-yl)oxy]-N-(3-fluorobenzyl)-1H-pyrrolo[2,3-b]pyridine-3-carboxamide] | 5.46 | 7.52 |
| C=CC(=O)N1CCC(Oc2cnc3[nH]cc(C(=O)NCc4ccccc4)c3c2)CC1 [Example 342, 5-[(1-acryloylpiperidin-4-yl)oxy]-N-benzyl-1H-pyrrolo[2,3-b]pyridine-3-carboxamide] | 5.58 | 7.58 |
| C=CC(=O)N1CCC(Oc2cnc3[nH]cc(C(=O)NCC4CC4)c3c2)CC1 [Example 343, 5-[(1-acryloylpiperidin-4-yl)oxy]-N-(cyclopropylmethyl)-1H-pyrrolo[2,3-b]pyridine-3-carboxamide] | 5.31 | 7.12 |
| C=CC(=O)N1CCC(Oc2cnc3[nH]cc(C(=O)N[C@H]4CC[C@@H](F)C4)c3c2)CC1 [Example 344, 5-[(1-acryloylpiperidin-4-yl)oxy]-N-[(1S,3R)-3-fluorocyclopentyl]-1H-pyrrolo[2,3-b]pyridine-3-carboxamide] | 5.60 | 7.57 |
| C=CC(=O)N1CCC(Oc2cnc3[nH]cc(C(=O)NCC4CCC4)c3c2)CC1 [Example 345, 5-[(1-acryloylpiperidin-4-yl)oxy]-N-(cyclobutylmethyl)-1H-pyrrolo[2,3-b]pyridine-3-carboxamide] | 5.40 | 7.36 |
| C=CC(=O)N1CCC(Oc2cnc3[nH]cc(C(=O)NCc4ccccc4F)c3c2)CC1 [Example 346, 5-[(1-acryloylpiperidin-4-yl)oxy]-N-(2-fluorobenzyl)-1H-pyrrolo[2,3-b]pyridine-3-carboxamide] | 5.35 | 7.39 |
| C=CC(=O)N1CCC(Oc2cnc3[nH]cc(C(=O)NCCC)c3c2)CC1 [Example 347, 5-[(1-acryloylpiperidin-4-yl)oxy]-N-propyl-1H-pyrrolo[2,3-b]pyridine-3-carboxamide] | 5.51 | 7.62 |
| C=CC(=O)N1CCC(Oc2cnc3[nH]cc(C(=O)NCCCC)c3c2)CC1 [Example 348, 5-[(1-acryloylpiperidin-4-yl)oxy]-N-butyl-1H-pyrrolo[2,3-b]pyridine-3-carboxamide] | 5.93 | 7.99 |
| C=CC(=O)N1CCC(Nc2cnc3[nH]cc(C(=O)NCC)c3c2)CC1 [Example 352, 5-((1-acryloylpiperidin-4-yl)amino)-N-ethyl-1H-pyrrolo[2,3-b]pyridine-3-carboxamide] | 5.35 | 7.28 |
